From patent publication US11116218B2, “Isoxazole compound or a salt thereof” (OAT AGRIO CO., LTD., priority 2017, dated 2021)

What was measured:
two-spotted spider mites [1] = assay: Ovicidal test on two-spotted spider mites; format: in vivo, two-spotted spider mite; settings: Tetranychus urticae, 144 h; 10 ppm spray, ovicidal rate 6 days after spraying
Method: A piece of non-woven fabric (4.5×5.5 cm) was suspended inside a plastic cup through an incision made in the lid of the plastic cup. After water was poured into the cup, the cup was covered with the lid. A kidney bean leaf (about 3.5×4.5 cm) was then placed on the sufficiently soaked, non-woven fabric. Twenty female adults of two-spotted spider mite were placed on the top of the leaf, and the fabric and leaf were placed in a thermostatic chamber having a temperature of 25±2° C. and a humidity of 40% and 16L8D. The next day, after the number of the female adults was adjusted once more to 20, 2 mL of a miticidal formulation containing the compound of the invention (10 ppm) prepared in the same manner as in test example 1 was sprayed onto the leaf, and the leaf was air-dried and placed in a thermostatic chamber (25±2° C. and a humidity of 50%). The ovicidal rate of the two-spotted spider mites was calculated 6 days after the spraying of the miticidal formulation.

two-spotted spider mites [2] = assay: Miticidal test on two-spotted spider mite (leaf spray); format: in vivo; settings: Tetranychus urticae, in Phaseolus vulgaris, 48 h, read-out: Mortality of mites (%)
From the text: A piece of non-woven fabric (4.5×5.5 cm) was suspended inside a plastic cup through an incision made in the lid of the plastic cup. After water was poured into the cup, the cup was covered with the lid. A kidney bean leaf (about 3.5×4.5 cm) was then placed on the sufficiently soaked, non-woven fabric. Another kidney bean leaf with two-spotted spider mites (about 30 mite samples) was placed on top of the first leaf, and the fabric and leaves were placed in a thermostatic chamber having a temperature of 25±2° C. and a humidity of 40% overnight. Next morning the top leaf was removed as the mite population had already moved to the lower leaf.
Miticidal formulations containing the compound of the invention (100 ppm and 5 ppm) were prepared by adding an aqueous solution (100 ppm) of Sorpol 355 (manufactured by Tobo Kagaku Co., Ltd.) to a methanol solution of the compound of the invention. These miticidal formulations were sprayed onto the leaves, and the leaves were air-dried and placed in a thermostatic chamber (25±2° C. and a humidity of 50%). The mortality rate of the two-spotted spider mites was calculated after 2 days.

## Cc1cc(F)c(-c2cc(C(F)F)on2)cc1SCC(F)(F)F [Compound 13, 5-(difluoromethyl)-3-(2-fluoro-4-methyl-5-((2,2,2-trifluoroethyl)thio)phenyl)isoxazole]
two-spotted spider mites [1]
  inhibition at 10 ppm: 98%
two-spotted spider mites [2]
  mortality at 5 ppm: 48%
  mortality at 100 ppm: 100%

## Cc1cc(C)c(-c2cc(C(F)(F)c3ccccc3)on2)cc1SCC(F)(F)F [Compound 40, 5-(difluoro(phenyl)methyl)-3-(2,4-dimethyl-5-((2,2,2-trifluoroethyl)thio)phenyl)isoxazole]
two-spotted spider mites [1]
  inhibition at 10 ppm: 89%
two-spotted spider mites [2]
  mortality at 5 ppm: 33%
  mortality at 100 ppm: 100%

## Cc1cc(C)c([S+]([O-])CC(F)(F)F)cc1-c1cc(C(F)(F)F)on1 (stereo not drawn) [Compound 26, 3-(2,4-dimethyl-5-((2,2,2-trifluoroethyl)sulfinyl)phenyl)-5-(trifluoromethyl)isoxazole]
two-spotted spider mites [1]
  inhibition at 10 ppm: 90%
two-spotted spider mites [2]
  mortality at 5 ppm: 98%
  mortality at 100 ppm: 100%

## Cc1cc(Cl)c(-c2cc(C(F)(F)c3ccccc3)on2)cc1SCC(F)(F)F [Compound 52, 3-(2-chloro-4-methyl-5-((2,2,2-trifluoroethyl)thio)phenyl)-5-(difluoro(phenyl)methyl)isoxazole]
two-spotted spider mites [1]
  inhibition at 10 ppm: 32%
two-spotted spider mites [2]
  mortality at 5 ppm: 61%
  mortality at 100 ppm: 100%

## CCC[S+]([O-])c1cc(-c2cc(C(F)(F)F)on2)c(F)cc1C (stereo not drawn) [Compound 35, 3-(2-fluoro-4-methyl-5-(propylsulfinyl)phenyl)-5-(trifluoromethyl)isoxazole]
two-spotted spider mites [1]
  inhibition at 10 ppm: 100%
two-spotted spider mites [2]
  mortality at 5 ppm: 100%
  mortality at 100 ppm: 100%

## Cc1cc(F)c(-c2cc(C(F)F)on2)cc1[S+]([O-])CC(F)(F)F (stereo not drawn) [Compound 14, 5-(difluoromethyl)-3-(2-fluoro-4-methyl-5-((2,2,2-trifluoroethyl)sulfinyl)phenyl)isoxazole]
two-spotted spider mites [1]
  inhibition at 10 ppm: 50%
two-spotted spider mites [2]
  mortality at 5 ppm: 40%
  mortality at 100 ppm: 100%

## Cc1cc(F)c(-c2cc(C(F)(F)C(F)(F)F)on2)cc1[S+]([O-])CC(F)(F)F (stereo not drawn) [Compound 5, 3-(2-fluoro-4-methyl-5-((2,2,2-trifluoroethyl)sulfinyl)phenyl)-5-(perfluoroethyl)isoxazole]
two-spotted spider mites [1]
  inhibition at 10 ppm: 90%
two-spotted spider mites [2]
  mortality at 5 ppm: 95%
  mortality at 100 ppm: 100%

## Cc1cc(Cl)c(-c2cc(C(F)(F)c3ccccc3)on2)cc1[S+]([O-])CC(F)(F)F (stereo not drawn) [Compound 53, 3-(2-chloro-4-methyl-5-((2,2,2-trifluoroethyl)sulfinyl)phenyl)-5-(difluoro(phenyl)methyl)isoxazole]
two-spotted spider mites [1]
  inhibition at 10 ppm: 90%
two-spotted spider mites [2]
  mortality at 5 ppm: 64%
  mortality at 100 ppm: 100%

## Cc1cc(F)c(-c2noc(C(F)(F)F)c2C)cc1[S+]([O-])CC(F)(F)F (stereo not drawn) [Compound 38, 3-(2-fluoro-4-methyl-5-((2,2,2-trifluoroethyl)sulfinyl)phenyl)-4-methyl-5-(trifluoromethyl)isoxazole]
two-spotted spider mites [1]
  inhibition at 10 ppm: 100%
two-spotted spider mites [2]
  mortality at 5 ppm: 100%
  mortality at 100 ppm: 100%

## Cc1cc(Cl)c(-c2cc(C(F)(F)Cl)on2)cc1[S+]([O-])CC(F)(F)F (stereo not drawn) [Compound 44, 3-(2-chloro-4-methyl-5-((2,2,2-trifluoroethyl)sulfinyl)phenyl)-5-(chlorodifluoromethyl)isoxazole]
two-spotted spider mites [1]
  inhibition at 10 ppm: 100%
two-spotted spider mites [2]
  mortality at 5 ppm: 100%
  mortality at 100 ppm: 100%

## Cc1cc(C)c([S+]([O-])CC(F)(F)F)cc1-c1cc(C(F)F)on1 (stereo not drawn) [Compound 47, 5-(difluoromethyl)-3-(2,4-dimethyl-5-((2,2,2-trifluoroethyl)sulfinyl)phenyl)isoxazole]
two-spotted spider mites [1]
  inhibition at 10 ppm: 80%
two-spotted spider mites [2]
  mortality at 5 ppm: 51%
  mortality at 100 ppm: 100%

## Cc1cc(Cl)c(-c2cc(C(F)(F)F)on2)cc1[S+]([O-])CC(F)(F)F (stereo not drawn) [Compound 23, 3-(2-chloro-4-methyl-5-((2,2,2-trifluoroethyl)sulfinyl)phenyl)-5-(trifluoromethyl)isoxazole]
two-spotted spider mites [1]
  inhibition at 10 ppm: 100%
two-spotted spider mites [2]
  mortality at 5 ppm: 100%
  mortality at 100 ppm: 100%

## Cc1cc(Cl)c(-c2cc(C(F)(F)Cl)on2)cc1SCC(F)(F)F [Compound 43, 3-(2-chloro-4-methyl-5-((2,2,2-trifluoroethyl)thio)phenyl)-5-(chlorodifluoromethyl)isoxazole]
two-spotted spider mites [1]
  inhibition at 10 ppm: 100%
two-spotted spider mites [2]
  mortality at 5 ppm: 100%
  mortality at 100 ppm: 100%

## Cc1cc(F)c(-c2cc(C(F)(F)F)on2)cc1[S+]([O-])CC(F)(F)F (stereo not drawn) [Compound 2, 3-(2-fluoro-4-methyl-5-((2,2,2-trifluoroethyl)sulfinyl)phenyl)-5-(trifluoromethyl)isoxazole]
two-spotted spider mites [1]
  inhibition at 10 ppm: 100%
two-spotted spider mites [2]
  mortality at 5 ppm: 100%
  mortality at 100 ppm: 100%

## Cc1cc(F)c(-c2cc(C(F)(F)F)on2)cc1SCC(F)(F)F [Compound 1, 3-(2-fluoro-4-methyl-5-((2,2,2-trifluoroethyl)thio)phenyl)-5-(trifluoromethyl)isoxazole]
two-spotted spider mites [2]
  mortality at 5 ppm: 30%
  mortality at 100 ppm: 100%

## Cc1cc(Cl)c(-c2cc(C(F)F)on2)cc1[S+]([O-])CC(F)(F)F (stereo not drawn) [Compound 56, 3-(2-chloro-4-methyl-5-((2,2,2-trifluoroethyl)sulfinyl)phenyl)-5-(difluoromethyl)isoxazole]
two-spotted spider mites [1]
  inhibition at 10 ppm: 100%
two-spotted spider mites [2]
  mortality at 5 ppm: 100%
  mortality at 100 ppm: 100%

## Cc1cc(Cl)c(-c2cc(C(F)F)on2)cc1SCC(F)(F)F [Compound 55, 3-(2-chloro-4-methyl-5-((2,2,2-trifluoroethyl)thio)phenyl)-5-(difluoromethyl)isoxazole]
two-spotted spider mites [1]
  inhibition at 10 ppm: 100%
two-spotted spider mites [2]
  mortality at 5 ppm: 100%
  mortality at 100 ppm: 100%

## Cc1cc(C)c(-c2cc(C(F)F)on2)cc1SCC(F)(F)F [Compound 46, 5-(difluoromethyl)-3-(2,4-dimethyl-5-((2,2,2-trifluoroethyl)thio)phenyl)isoxazole]
two-spotted spider mites [1]
  inhibition at 10 ppm: 83%
two-spotted spider mites [2]
  mortality at 5 ppm: 79%
  mortality at 100 ppm: 100%

## Cc1cc(C)c(-c2cc(C(F)(F)Cl)on2)cc1SCC(F)(F)F [Compound 49, 5-(chlorodifluoromethyl)-3-(2,4-dimethyl-5-((2,2,2-trifluoroethyl)thio)phenyl)isoxazole]
two-spotted spider mites [1]
  inhibition at 10 ppm: 0%
two-spotted spider mites [2]
  mortality at 5 ppm: 6%
  mortality at 100 ppm: 100%

## Cc1cc(Cl)c(-c2cc(C(F)(F)F)on2)cc1SCC(F)(F)F [Compound 22, 3-(2-chloro-4-methyl-5-((2,2,2-trifluoroethyl)thio)phenyl)-5-(trifluoromethyl)isoxazole]
two-spotted spider mites [2]
  mortality at 5 ppm: 73%
  mortality at 100 ppm: 100%

## Cc1cc(C)c(-c2cc(C(F)(F)F)on2)cc1SCC(F)(F)F [Compound 25, 3-(2,4-dimethyl-5-((2,2,2-trifluoroethyl)thio)phenyl)-5-(trifluoromethyl)isoxazole]
two-spotted spider mites [2]
  mortality at 5 ppm: 10%
  mortality at 100 ppm: 100%

## Cc1ccc(-c2cc(C(F)(F)F)on2)cc1SCC(F)(F)F [Compound A, reference compound]
two-spotted spider mites [1]
  inhibition at 10 ppm: 0%
two-spotted spider mites [2]
  mortality at 5 ppm: 0%
  mortality at 100 ppm: 100%

## Cc1cc(F)c(-c2cc(C(F)(F)c3ccccc3)on2)cc1[S+]([O-])CC(F)(F)F (stereo not drawn) [Compound 20, 5-(difluoro(phenyl)methyl)-3-(2-fluoro-4-methyl-5-((2,2,2-trifluoroethyl)sulfinyl)phenyl)isoxazole]
two-spotted spider mites [1]
  inhibition at 10 ppm: 95%
two-spotted spider mites [2]
  mortality at 5 ppm: 93%
  mortality at 100 ppm: 100%

## Cc1cc(F)c(-c2cc(C(F)(F)c3ccccc3)on2)cc1SCC(F)(F)F [Compound 19, 5-(difluoro(phenyl)methyl)-3-(2-fluoro-4-methyl-5-((2,2,2-trifluoroethyl)thio)phenyl)isoxazole]
two-spotted spider mites [1]
  inhibition at 10 ppm: 100%
two-spotted spider mites [2]
  mortality at 5 ppm: 100%
  mortality at 100 ppm: 100%

## Cc1cc(F)c(-c2cc(C(F)(F)Cl)on2)cc1[S+]([O-])CC(F)(F)F (stereo not drawn) [Compound 17, 5-(chlorodifluoromethyl)-3-(2-fluoro-4-methyl-5-((2,2,2-trifluoroethyl)sulfinyl)phenyl)isoxazole]
two-spotted spider mites [1]
  inhibition at 10 ppm: 100%
two-spotted spider mites [2]
  mortality at 5 ppm: 98%
  mortality at 100 ppm: 100%

## Cc1cc(F)c(-c2cc(C(F)(F)C(F)(F)C(F)(F)F)on2)cc1[S+]([O-])CC(F)(F)F (stereo not drawn) [Compound 8, 3-(2-fluoro-4-methyl-5-((2,2,2-trifluoroethyl)sulfinyl)phenyl)-5-(heptafluoropropyl)isoxazole]
two-spotted spider mites [1]
  inhibition at 10 ppm: 90%
two-spotted spider mites [2]
  mortality at 5 ppm: 100%
  mortality at 100 ppm: 100%

## Cc1cc(C)c([S+]([O-])CC(F)(F)F)cc1-c1cc(C(F)(F)Cl)on1 (stereo not drawn) [Compound 50, 5-(chlorodifluoromethyl)-3-(2,4-dimethyl-5-((2,2,2-trifluoroethyl)sulfinyl)phenyl)isoxazole]
two-spotted spider mites [1]
  inhibition at 10 ppm: 97%
two-spotted spider mites [2]
  mortality at 5 ppm: 96%
  mortality at 100 ppm: 100%
